Series [1] can be described thus: Apparent solubility in pH 6.8 phosphate buffer (shaker, HPLC). In kind it is physicochemical. How it is done:
3. Apparent solubility: excess amount of Olaparib pharmaceutical composition was weighed into a container, about ⅔ of the volume of the container with pH 6.8 phosphate buffer was added, and the container was placed in a shaker at 37° C. for 2 h. After filtering the contents of the container with a 0.45 μm filter membrane, the filtrate was collected, diluted with an appropriate amount of acetonitrile, mixed by vortex, and the concentration of Olaparib was determined by HPLC analysis.

The nature of series [2]: Dissolution, USP Method 1 (Basket Method), pH 6.8 phosphate buffer. In kind it is physicochemical. The following applies: 900 mL, 100 rpm, 37.5° C., 150 mg Olaparib/cup. How it is done:
5. Dissolution sample analysis: the same as the HPLC analysis method described in the above-mentioned apparent solubility assay.
The main absorption site of drugs in the human body is the small intestine, and the pH value in the small intestine is about 6.8. According to the method described above, the dissolution of each Olaparib-cyclodextrin pharmaceutical composition in pH 6.8 phosphate buffer was determined, and the results were shown in Table 1-4.

Broadly, the solubility is how much of the substance goes into solution per volume.

For `O=C(c1cc(Cc2n[nH]c(=O)c3ccccc23)ccc1F)N1CCN(C(=O)C2CC2)CC1` [API, 4-[(3-{[4(cyclopropylcarbonyl)piperazin-1-yl]carbonyl}-4-fluorophenyl)methyl]phthalazin-1(2H)-one], the solubility at 2 h in series [1] (aqueous buffer, thermodynamic from solid, pH 6.8 phosphate buffer, 37° C., 2 h) was less than 100 µg/mL. In addition, the “Solubility ratio (Composition/API)” value in series [1] (pH 6.8 buffer, apparent solubility relative to API) is reported as 1. Moreover, the “Cumulative dissolution in pH 6.8 phosphate buffer” value in series [2] (15 min) was 12.2%; in series [2] (30 min) it was 21.4%; in series [2] (45 min), 30.2%; in series [2] (60 min), 37.5%; in series [2] (90 min) it was 39.8%.
